Measured values as given in PubChem BioAssay AID256 (DTP/NCI, 2004).
Inconclusive results and toxic doses are left out. Rule for the calls: active = survival T/C of 150% or more; inactive = T/C below 125% in these data.

System: CD2F1 mice, L1210 leukemia ip, survival T/C
Assay: NCI In Vivo Anticancer Drug Screen. Data for tumor model L1210 Leukemia (intraperitoneal) in CD2F1 (CDF1) mice
Conditions: higher = longer survival
How it was run: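 Tumor-bearing mice (transplanted tumor) were split into treated and vehicle control groups, and the measured endpoint of each treated group was divided by that of its vehicle controls.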

[1] = endpoint: mean survival time, dose: 50.0 mg/kg/injection, schedule: Q01DX009 (ip), vehicle: saline with Tween-80
[2] = endpoint: mean survival time, dose: 100.0 mg/kg/injection, schedule: Q04DX003 (ip), vehicle: saline with Tween-80
[3] = endpoint: mean survival time, dose: 50.0 mg/kg/injection, schedule: Q01DX009 (ip), vehicle: Klucel (hydroxypropylcellulose) (HPC)
[4] = endpoint: mean survival time, dose: 100.0 mg/kg/injection, schedule: Q01DX009 (ip), vehicle: Klucel (hydroxypropylcellulose) (HPC)
[5] = endpoint: mean survival time, dose: 200.0 mg/kg/injection, schedule: Q01DX009 (ip), vehicle: Klucel (hydroxypropylcellulose) (HPC)
[6] = endpoint: mean survival time, dose: 100.0 mg/kg/injection, schedule: Q01DX009 (ip), vehicle: saline with Tween-80
[7] = endpoint: mean survival time, dose: 200.0 mg/kg/injection, schedule: Q01DX009 (ip), vehicle: saline with Tween-80
[8] = endpoint: mean survival time, dose: 200.0 mg/kg/injection, schedule: Q04DX003 (ip), vehicle: saline with Tween-80
[9] = endpoint: mean survival time, dose: 400.0 mg/kg/injection, schedule: Q04DX003 (ip), vehicle: saline with Tween-80

Measured: T/C

Cc1nccn1C(C)c1ccccc1 (configuration not stated)
inactive: endpoint: mean survival time, dose: 10.0 mg/kg/injection, schedule: Q04DX003 (ip), vehicle: saline 105 % of control | endpoint: mean survival time, dose: 20.0 mg/kg/injection, schedule: Q04DX003 (ip), vehicle: saline 94 % of control | endpoint: mean survival time, dose: 40.0 mg/kg/injection, schedule: Q04DX003 (ip), vehicle: saline 92 % of control

O=C1CC=C2C3CC4N(CCC45c4cc(O)c(O)cc4N1C25)C/C3=C\CBr (configuration not stated)
inactive: endpoint: mean survival time, dose: 75.0 mg/kg/injection, schedule: Q01DX001 (ip), vehicle: saline 115 % of control

COC(=O)CSc1nn(C2OC(COC(=O)c3ccccc3)C(OC(=O)c3ccccc3)C2OC(=O)c2ccccc2)c(=O)[nH]c1=O (configuration not stated)
inactive: endpoint: mean survival time, dose: 12.5 mg/kg/injection, schedule: Q01DX005 (ip), vehicle: distilled water + Tween-80 92 % of control | endpoint: mean survival time, dose: 25.0 mg/kg/injection, schedule: Q01DX005 (ip), vehicle: distilled water + Tween-80 101 % of control | endpoint: mean survival time, dose: 50.0 mg/kg/injection, schedule: Q01DX005 (ip), vehicle: distilled water + Tween-80 93 % of control | endpoint: mean survival time, dose: 100.0 mg/kg/injection, schedule: Q01DX005 (ip), vehicle: distilled water + Tween-80 90 % of control | endpoint: mean survival time, dose: 200.0 mg/kg/injection, schedule: Q01DX005 (ip), vehicle: distilled water + Tween-80 88 % of control

NC(=O)c1cc(N2CC2)c([N+](=O)[O-])cc1[N+](=O)[O-]
inactive: endpoint: mean survival time, dose: 25.0 mg/kg/injection, schedule: Q01DX009 (ip), vehicle: saline with Tween-80 114 % of control | endpoint: mean survival time, dose: 25.0 mg/kg/injection, schedule: Q04DX003 (ip), vehicle: saline with Tween-80 110 % of control | [1] 115 % of control | endpoint: mean survival time, dose: 50.0 mg/kg/injection, schedule: Q04DX003 (ip), vehicle: saline with Tween-80 97 % of control | [2] 106 % of control

O=C1C(c2ccccc2)=[N+]([O-])[N+]([O-])=C1c1ccccc1
inactive: [3] 97 % of control | [4] 97 % of control | [5] 101 % of control

COc1ccccc1NC(=S)N(C)C
inactive: [1] 98 % of control | [6] 101 % of control | [7] 98 % of control

CC(=O)[C@]1(O)Cc2c(O)c3c(c(O)c2[C@@H](OC2CC(N)C(O)C(C)O2)C1)C(=O)c1c(O)cccc1C3=O (some centres not stated)
inactive: endpoint: mean survival time, dose: 0.05 mg/kg/injection, schedule: Q01DX009 (ip), vehicle: saline 118 % of control | endpoint: mean survival time, dose: 0.08 mg/kg/injection, schedule: Q01DX009 (ip), vehicle: saline 120 % of control | endpoint: mean survival time, dose: 0.08 mg/kg/injection, schedule: Q04DX003 (ip), vehicle: saline 107 % of control | endpoint: mean survival time, dose: 0.14 mg/kg/injection, schedule: Q04DX003 (ip), vehicle: saline 109 % of control | endpoint: mean survival time, dose: 0.23 mg/kg/injection, schedule: Q04DX003 (ip), vehicle: saline 123 % of control | endpoint: mean survival time, dose: 0.39 mg/kg/injection, schedule: Q01DX009 (ip), vehicle: saline 113 % of control | endpoint: mean survival time, dose: 0.65 mg/kg/injection, schedule: Q01DX009 (ip), vehicle: saline 88 % of control

C[Si](C)(c1ccccc1C(=O)Nc1ccccc1)c1ccccc1C(=O)Nc1ccccc1
inactive: [2] 92 % of control | [8] 96 % of control | [9] 101 % of control

Cc1cc(C)c(N2C(=O)C=CC2=O)c(C)c1
inactive: endpoint: mean survival time, dose: 6.25 mg/kg/injection, schedule: Q01DX009 (ip), vehicle: saline with Tween-80 94 % of control

Cc1c[nH]c(=O)n(CC(=O)C2(O)CCC3C4CCC5=CC(=O)CCC5(C)C4CCC32C)c1=O (configuration not stated)
inactive: endpoint: mean survival time, dose: 12.5 mg/kg/injection, schedule: Q04DX003 (ip), vehicle: Klucel (hydroxypropylcellulose) (HPC) 103 % of control | endpoint: mean survival time, dose: 25.0 mg/kg/injection, schedule: Q04DX003 (ip), vehicle: Klucel (hydroxypropylcellulose) (HPC) 102 % of control | endpoint: mean survival time, dose: 50.0 mg/kg/injection, schedule: Q04DX003 (ip), vehicle: Klucel (hydroxypropylcellulose) (HPC) 102 % of control | endpoint: mean survival time, dose: 100.0 mg/kg/injection, schedule: Q04DX003 (ip), vehicle: Klucel (hydroxypropylcellulose) (HPC) 97 % of control | endpoint: mean survival time, dose: 200.0 mg/kg/injection, schedule: Q04DX003 (ip), vehicle: Klucel (hydroxypropylcellulose) (HPC) 100 % of control

COc1cccc(/C=N/OCCNC(=O)c2ccc([N+](=O)[O-])cc2)c1
inactive: [2] 97 % of control | [8] 93 % of control | [9] 101 % of control

c1ccc(C2COCC2c2ccccc2)cc1 (configuration not stated)
inactive: endpoint: mean survival time, dose: 100.0 mg/kg/injection, schedule: Q01DX001 (ip), vehicle: saline with Tween-80 86 % of control | endpoint: mean survival time, dose: 200.0 mg/kg/injection, schedule: Q01DX001 (ip), vehicle: saline with Tween-80 92 % of control | endpoint: mean survival time, dose: 400.0 mg/kg/injection, schedule: Q01DX001 (ip), vehicle: saline with Tween-80 93 % of control

CCOC(=O)C1=C(C)NC(C)=C(C(=O)OCC)C1c1ccccn1
inactive: [3] 94 % of control | [4] 91 % of control | [5] 89 % of control

CC1(C)N=C(N)N=C(N)N1c1ccc(CC(=O)Nc2ccc(S(=O)(=O)F)cc2)cc1
inactive: endpoint: mean survival time, dose: 100.0 mg/kg/injection, schedule: Q01DX001 (ip), vehicle: saline 102 % of control | endpoint: mean survival time, dose: 200.0 mg/kg/injection, schedule: Q01DX001 (ip), vehicle: saline 97 % of control | endpoint: mean survival time, dose: 400.0 mg/kg/injection, schedule: Q01DX001 (ip), vehicle: saline 96 % of control

S=c1[nH]c2ccccc2nc1NCc1ccccc1
inactive: endpoint: mean survival time, dose: 100.0 mg/kg/injection, schedule: Q04DX003 (ip), vehicle: other 91 % of control | endpoint: mean survival time, dose: 200.0 mg/kg/injection, schedule: Q04DX003 (ip), vehicle: other 93 % of control | endpoint: mean survival time, dose: 400.0 mg/kg/injection, schedule: Q04DX003 (ip), vehicle: other 93 % of control

Nc1cc(OCc2ccccc2)c(N)c(N)n1
inactive: endpoint: mean survival time, dose: 1.56 mg/kg/injection, schedule: Q01DX005 (ip), vehicle: water 98 % of control | endpoint: mean survival time, dose: 3.13 mg/kg/injection, schedule: Q01DX005 (ip), vehicle: water 97 % of control | endpoint: mean survival time, dose: 6.25 mg/kg/injection, schedule: Q01DX005 (ip), vehicle: water 98 % of control | endpoint: mean survival time, dose: 12.5 mg/kg/injection, schedule: Q01DX005 (ip), vehicle: water 98 % of control | endpoint: mean survival time, dose: 25.0 mg/kg/injection, schedule: Q01DX005 (ip), vehicle: water 97 % of control

O=S1(=O)CC(Br)C(Br)C1 (configuration not stated)
inactive: [1] 88 % of control | [6] 100 % of control | [2] 106 % of control | [7] 110 % of control | [8] 107 % of control | [9] 100 % of control

NC(=O)c1ncn(C2OC(CO)C(O)C2O)c1Cl (configuration not stated)
inactive: endpoint: median survival time, dose: 8.0 mg/kg/injection, schedule: Q01DX005 (ip), vehicle: water 100 % of control | endpoint: median survival time, dose: 16.0 mg/kg/injection, schedule: Q01DX005 (ip), vehicle: water 103 % of control | endpoint: median survival time, dose: 32.0 mg/kg/injection, schedule: Q01DX005 (ip), vehicle: water 100 % of control | endpoint: median survival time, dose: 64.0 mg/kg/injection, schedule: Q01DX005 (ip), vehicle: water 100 % of control | endpoint: median survival time, dose: 128.0 mg/kg/injection, schedule: Q01DX005 (ip), vehicle: water 107 % of control

O=C(Nc1ccc(S(=O)(=O)N2CCCCC2)cc1)Oc1ccc([N+](=O)[O-])cc1
inactive: endpoint: mean survival time, dose: 5.0 mg/kg/injection, schedule: Q01DX001 (ip), vehicle: other 97 % of control | endpoint: mean survival time, dose: 10.0 mg/kg/injection, schedule: Q01DX001 (ip), vehicle: other 108 % of control | endpoint: mean survival time, dose: 20.0 mg/kg/injection, schedule: Q01DX001 (ip), vehicle: other 100 % of control | endpoint: mean survival time, dose: 40.0 mg/kg/injection, schedule: Q01DX001 (ip), vehicle: other 100 % of control | endpoint: mean survival time, dose: 80.0 mg/kg/injection, schedule: Q01DX001 (ip), vehicle: other 96 % of control
